# Literature values in patent publication US11123293B2, “Liposomal formulation for joint lubrication” (MOEBIUS MEDICAL LTD., priority 2017, dated 2021).
# Where “and” joins values, the source holds several entries; their conditions need not be identical. Identical values can stand only once. Like-named read-outs stand apart in the source and are kept apart here.
# What was measured:
# [1] = pure phospholipid, literature value
# rabbit's knee = conditions: solution, intra-articular injection into a rabbit's knee
# joints of OA patients = conditions: injection into joints of OA patients, without major side effects
Compound,Tm [1],also measured
"CCCCCCCCCCCCCC(=O)OC[C@H](COP(=O)(O)OCC(O)CO)OC(=O)CCCCCCCCCCCCC (some centres unmarked) [DMPG, 1,2-dimyristoyl-sn-glycero-3-phosphorylglycerol]",23 °C,–
OCC(O)CO [glycerol],–,prevention of joint irritation (rabbit's knee): did not prevent irritation
"CCCCCCCCCCCCCCCCCC(=O)OC[C@H](COP(=O)([O-])OCC[N+](C)(C)C)OC(=O)CCCCCCCCCCCCCCCCC [DSPC, 1,2-distearoyl-sn-glycero-3-phosphocholine]",55 °C,–
OC[C@@H](O)[C@@H](O)[C@H](O)[C@H](O)CO [mannitol],–,prevention of joint irritation (rabbit's knee): did not prevent irritation
"CCCCCCCCCCCCCCCC(=O)OC[C@H](COP(=O)([O-])OCC[N+](C)(C)C)OC(=O)CCCCCCCCCCCCCCC [DPPC, 1,2-dipalmitoyl-sn-glycero-3-phosphocholine]",41 °C and 41.4 °C,mobility improvement lasting (joints of OA patients): up to 14 weeks
"CCCCCCCCCCCCCCC(=O)OC[C@H](COP(=O)([O-])OCC[N+](C)(C)C)OC(=O)CCCCCCCCCCCCCC [1,2-dipentadecanoyl-sn-glycero-3-phosphocholine]",33.0 °C,–

# Continued, in another order:
Tm [1],Compound,also measured
41.0 °C,"CCCCCCCCCCCCC/C=C/[C@@H](O)[C@H](COP(=O)([O-])OCC[N+](C)(C)C)NC(=O)CCCCCCCCCCCCCCC [D-erythro C16, N-palmitoyl-D-erythro-sphingosylphosphorylcholine]",Tm ([1]; listed as N-palmitoyl SM): 41 °C
41 °C,"CCCCCCCCCCCCCCCC(=O)OC[C@H](COP(=O)(O)OCC(O)CO)OC(=O)CCCCCCCCCCCCCCC (some centres unmarked) [DPPG, 1,2-dipalmitoyl-sn-glycero-3-phosphorylglycerol]",–
23 °C and ~24 °C,"CCCCCCCCCCCCCC(=O)OC[C@H](COP(=O)([O-])OCC[N+](C)(C)C)OC(=O)CCCCCCCCCCCCC [DMPC, 1,2-dimyristoyl-sn-glycero-3-phosphocholine]",–
